Data reported in the supplement of paper PMC11451515.

System: P12-Ichikawa
Experiment: cell viability relative to DMSO control; higher = less cytotoxic
Details: 48 h
Outline: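 Viability is a per-plate percentage relative to DMSO wells, with cell-free wells as background. CellTiter-Glo One luminescence was read after 48 h at 37°C on 1536-well plates (5 μl) of NOMO1 or SEM (500 cells/well) or P12-Ichikawa (1000 cells/well) leukemia cells. The cells had been adapted for at least four passages in each medium and pin-dosed with library compounds in DMSO from 47 μM to 0.79 nM in 11 threefold steps.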

[1] = HPLM + 10% dialyzed FBS, 0.000781 µM
[2] = HPLM + 10% dialyzed FBS, 0.00234 µM
[3] = HPLM + 10% dialyzed FBS, 0.00702 µM
[4] = HPLM + 10% dialyzed FBS, 0.0211 µM
[5] = HPLM + 10% dialyzed FBS, 0.0632 µM
[6] = HPLM + 10% dialyzed FBS, 0.19 µM
[7] = HPLM + 10% dialyzed FBS, 0.569 µM
[8] = HPLM + 10% dialyzed FBS, 1.71 µM
[9] = HPLM + 10% dialyzed FBS, 5.12 µM
[10] = HPLM + 10% dialyzed FBS, 15.4 µM
[11] = HPLM + 10% dialyzed FBS, 46.1 µM
[12] = RPMI 5 mM glucose + 10% FBS, 0.000781 µM
[13] = RPMI 5 mM glucose + 10% FBS, 0.00234 µM
[14] = RPMI 5 mM glucose + 10% FBS, 0.00702 µM
[15] = RPMI 5 mM glucose + 10% FBS, 0.0211 µM
[16] = RPMI 5 mM glucose + 10% FBS, 0.0632 µM
[17] = RPMI 5 mM glucose + 10% FBS, 0.19 µM
[18] = RPMI 5 mM glucose + 10% FBS, 0.569 µM
[19] = RPMI 5 mM glucose + 10% FBS, 1.71 µM
[20] = RPMI 5 mM glucose + 10% FBS, 5.12 µM
[21] = RPMI 5 mM glucose + 10% FBS, 15.4 µM
[22] = RPMI 5 mM glucose + 10% FBS, 46.1 µM
[23] = RPMI 5 mM glucose + 10% dialyzed FBS, 0.000781 µM
[24] = RPMI 5 mM glucose + 10% dialyzed FBS, 0.00234 µM
[25] = RPMI 5 mM glucose + 10% dialyzed FBS, 0.00702 µM
[26] = RPMI 5 mM glucose + 10% dialyzed FBS, 0.0211 µM
[27] = RPMI 5 mM glucose + 10% dialyzed FBS, 0.0632 µM
[28] = RPMI 5 mM glucose + 10% dialyzed FBS, 0.19 µM
[29] = RPMI 5 mM glucose + 10% dialyzed FBS, 0.569 µM
[30] = RPMI 5 mM glucose + 10% dialyzed FBS, 1.71 µM
[31] = RPMI 5 mM glucose + 10% dialyzed FBS, 5.12 µM
[32] = RPMI 5 mM glucose + 10% dialyzed FBS, 15.4 µM
[33] = RPMI 5 mM glucose + 10% dialyzed FBS, 46.1 µM

Compound	cell viability [1]	cell viability [2]	cell viability [3]	cell viability [4]	cell viability [5]	cell viability [6]	cell viability [7]	cell viability [8]	cell viability [9]	cell viability [10]	cell viability [11]	cell viability [12]	cell viability [13]	cell viability [14]	cell viability [15]	cell viability [16]	cell viability [17]	cell viability [18]	cell viability [19]	cell viability [20]	cell viability [21]	cell viability [22]	cell viability [23]	cell viability [24]	cell viability [25]	cell viability [26]	cell viability [27]	cell viability [28]	cell viability [29]	cell viability [30]	cell viability [31]	cell viability [32]	cell viability [33]
CC(C)(C)[C@H](NC(=O)c1ccc(N)c(Cl)c1)C(=O)N1CCC[C@H]1C(=O)N[C@H](C#N)CC(=O)O	121%	126%	123%	127%	131%	127%	130%	126%	32.8%	14.4%	10.8%	116%	124%	130%	133%	126%	139%	133%	133%	49.9%	22.6%	15.5%	108%	123%	121%	133%	131%	130%	133%	127%	102%	52.1%	16.7%
CC(C)[C@H](N)C(=O)OCCOC[N]1C=NC2=C1\N=C(N)/NC2=O	124%	124%	121%	125%	128%	126%	131%	131%	123%	123%	119%	123%	135%	122%	121%	128%	150%	146%	152%	140%	132%	146%	–	–	–	–	–	–	–	–	–	–	–
COc1cc(C)c(Sc2cnc(NC(=O)c3ccc(CNC(C)C(C)C)cc3)s2)cc1C(=O)N1CCN(C(C)=O)CC1 (stereo unspecified)	118%	125%	119%	129%	119%	118%	117%	107%	103%	90.1%	109%	–	–	–	–	–	–	–	–	–	–	–	–	–	–	–	–	–	–	–	–	–	–
COC1=CC=C(C=C1O)C/2=C/C(=O)C3=C(O2)C=C(O[C@@H]4O[C@H](CO[C@@H]5O[C@@H](C)[C@H](O)[C@@H](O)[C@H]5O)[C@@H](O)[C@H](O)[C@H]4O)C=C3O	108%	112%	121%	121%	115%	116%	118%	118%	116%	123%	122%	113%	113%	118%	119%	137%	116%	126%	115%	123%	113%	131%	116%	117%	117%	125%	122%	125%	126%	130%	118%	121%	127%
C[C@]12CC[C@H]3[C@@H](CCC/4=C/C(=O)CC[C@]34C)[C@@H]1CC[C@@H]2OC(=O)CCC5CCCC5	93.1%	100%	104%	113%	98.8%	101%	106%	110%	104%	111%	114%	83.1%	84.3%	101%	107%	115%	104%	107%	108%	110%	101%	99.9%	90.8%	93.5%	99.8%	102%	100%	104%	104%	98.9%	104%	110%	96.7%
C[C@@H](O)[C@@H]1NC(=O)[C@H](CCCCN)NC(=O)[C@@H](Cc2c[nH]c3ccccc23)NC(=O)[C@H](Cc2ccccc2)NC(=O)[C@@H](NC(=O)[C@H](N)Cc2ccccc2)CSSC[C@@H](C(=O)N[C@H](CO)[C@@H](C)O)NC1=O	84.1%	94.4%	88.9%	90.5%	91.7%	94.1%	91.3%	95.8%	89.4%	92%	95%	76.4%	85.1%	83%	87.2%	81.7%	81.3%	83%	83.8%	86.4%	78.8%	81%	83%	80.8%	85.7%	82.6%	84.9%	79.8%	80.1%	84.7%	79.8%	79.9%	79.7%
COc1ncc(-c2ccc3c(Nc4cc(Oc5cc(F)cc(F)c5)cc(C(=O)O)c4)c([S+](=O)([O-])NC4CC4)cnc3c2)c(OC)n1	94.1%	95.9%	92.3%	91.9%	91.5%	94.2%	93.3%	91.7%	87.9%	78.6%	82.3%	84%	87.8%	88.1%	93.1%	97.9%	84.2%	82.2%	83.1%	79.6%	75.3%	76.5%	91.1%	43%	87.7%	89.4%	92.7%	91%	91.3%	88.4%	84.6%	82.8%	81.8%
CCN1CCN(C(=O)Cc2ccc(Nc3ncc(F)c(Nc4ccc(C(=O)Nc5ccccc5Cl)cc4)n3)cc2)CC1	107%	105%	108%	108%	116%	118%	116%	107%	60.1%	48.1%	26.2%	105%	108%	112%	111%	115%	122%	111%	114%	73.2%	50.9%	41%	119%	111%	112%	125%	131%	121%	107%	107%	79.2%	52.6%	45.6%
